Results from patent publication US20080118480A1, “Methods and Compositions for Directing Migration of Neural Progenitor Cells” (IMCLONE SYSTEMS INCORPORATED, priority 2003, published 2008).
Entries after “also recorded” stand apart in the source; their conditions may differ.

Tests used:
Type in all cases: cell-based, rat
neural progenitor cells = assay: Dunn chamber chemotaxis / chemokinesis of neural progenitor cells
Description: The SVZ was dissected from coronal slices of newborn rat brains, dissociated mechanically and trypsinized according to methods known in the art (See Lim et al. “Noggin antagonizes BMP signaling to create a niche for adult neurogenesis, Neuron, 28: 713-726 (2000), which is incorporated by reference herein). SVZ progenitors were purified using percoll gradient centrifugation according to methods known in the art (See Lim et al., 2000) and seeded onto matrigel (0.24 mg/cm^2)- or laminin-coated coverslips. Isolated cells were allowed to grow in Neurobasal medium supplemented with 20 ng/ml FGF-2, 1×B27, 2 mM […], 1 mM sodium pyruvate, 2 mM N-acetyl-cysteine, and 1% penicillin-streptomycin. Cultures were fed every three days with fresh medium containing 20 ng/ml FGF-2.
[…] Cell Sci., 99:769-775 (1991); Allen et al., “A role for Cdc42 in macrophage chemotaxis,” J. Cell. Biol, 141:1147-1157 (1998), both of which are incorporated by reference herein). Recombinant human VEGF-CΔNΔC (Dr. M. Skobe, Cancer Center, Mount Sinai Medical Center, New York) was used in some experiments. The Dunn chamber is made from a Helber bacteria counting chamber by grinding a circular well in the central platform to leave a 1 mm wide annular bridge between the inner and the outer well. Chemoattractants added to the outer well of the device will diffuse across the bridge to the inner blind well of the chamber and form a gradient. This apparatus allows one to determine the direction of migration in relation to the direction of the gradient.
Coverslips with cells were inverted onto the chamber and cell migration was recorded through the annular bridge between the concentric inner and outer wells, and a period of 2 hours was chosen to assess cell migration. In these studies, a systematic sampling was applied and all cells within the migration region of the chamber were recorded and analyzed. Data were recorded every 10 minutes using a ZEISS 10× objective via a HAMAMATSU CCD video camera using Openlab software.
[…] For chemokinesis experiments, VEGF (20 ng/ml) or FGF-2 (20 ng/ml) was added to both outer and inner wells of the Dunn chamber.
Directionality of cell movement was analyzed using scatter diagrams of cell displacement. The diagrams were oriented so that the position of the outer well of the chamber was vertically upwards (y direction). Each point represents the final positions of the cells at the end of the recording period where the starting point of migration is fixed at the intersection of the two axes.
To determine the efficiency of forward migration during the 2-hour recording period, each cell's forward migration index (FMI) was calculated as the ratio of forward progress (net distance the cell progressed in the direction of VEGF source) to the total path length (total distance the cell traveled through the field) (Foxman et al., 1999). FMI values were negative when cells moved away from the source of VEGF. The cell speed was calculated for each lapse interval recorded during the 2-hour period.

VEGFR-1 = assay: RNase protection assay of VEGF receptor mRNA expression; settings: 12 hours starvation of FGF-2 versus cells in FGF-2
Description: (§1) Neural progenitor cells at 6 days of culture in FGF-2 or after starvation of FGF-2 for 12 hours were used for RNA preparation. Total cellular RNA was purified using Trizol reagent (Invitrogen). RNase protection assays were performed using cRNA probes for rat VEGFR1 and VEGFR2 as described in Pepper et al. (2000).

VEGFR-2 [1] = assay: as above; settings: 12 hours starvation of FGF-2 versus cells in FGF-2
Description: as §1

VEGFR-2 [2] = assay: Immunoprecipitation and Western blot of VEGFR-2 protein
Description: Neural progenitor cells from the normal cultures in FGF-2 or from cultures starved of FGF-2 for 12 hours were lysed and VEGFR-2 protein was immunoprecipitated from cell lysates with a polyclonal antibody (sc-504; Santa Cruz Biochemicals, Santa Cruz, Calif.) recognizing amino aids 1158 to 1345 in the mouse VEGFR2 carboxy terminus. Western blot was performed with a polyclonal anti-VEGFR-2 antibody (sc-315; Santa Cruz Biochemicals) recognizing the mouse carboxy terminal amino acids 1348 to 1367.

[3] = tested on: subventricular zone (SVZ) explants; assay: Migration of neural progenitor cells from SVZ explants in collagen matrix
From the text: The frontal lobes of the brains of one-day-old Sprague-Dawley rat pups (Size, Zurich, Switzerland) were isolated and cut into 300 μm thick coronal sections with a McIllwain tissue chopper. From these slices the anterior part of the subventricular zone (SVZ) was microdissected. The SVZ explants were embedded in a collagen matrix and cultured for 7 days in chemically-defined serum-free medium (50% Dulbecco's modified Eagle's medium [Gibco, Berlin, […]], 50% F12, HEPES, Tris-HCl, and complemented with transferrin human 20 μg/ml, putrescine 100 μM, sodium selenite 30 nM, triiodothyronin 1 nM, docosahexaenoic acid 0.5 μg/ml, arachidonic acid 1 μg/ml, insulin 60 U/l) under 5% CO2. The medium was changed every 3rd day. For co-culture experiments, SVZ explants were cultured in the presence of murine C2C12 myoblasts that had been engineered to secret […] et al., 2001). C2C12 cells were suspended in a drop of collagen matrix which was placed at a distance of approximately 1,000 μm from the SVZ explant. As a control, mock-transfected cells of the same origin were placed into the collagen matrix in a similar manner and at the same distance, but on the opposite side of the explant. Cell migration was assessed at the end of the 7th day in culture. Three categories were established: 1, no migration: no or only a few cells emigrated from the explants; 2, symmetrical migration: numerous cells had left the explants, the distance of the migrating front of the cells exceeded 50 μm, no directionality of migration; 3, asymmetrical or directional migration: when the distance of the migrating front were at least twice that on the other side and exceeded 50 μm.

Substance | chemotactic response to VEGF after re-addition of FGF-2 (neural progenitor cells; 12-hour FGF-2 starvation, then 8-hour re-incubation with FGF-2, VEGF gradient) | chemotactic effect of FGF-2 (neural progenitor cells; FGF-2 gradient, whether or not VEGF was present) | level of VEGFR-1 transcripts after FGF-2 starvation (VEGFR-1) | level of VEGFR-2 transcripts after FGF-2 starvation (VEGFR-2 [1]) | VEGFR-2 protein expression in the presence of FGF-2 (VEGFR-2 [2]; cultured in FGF-2) | VEGFR-2 protein expression in the absence of FGF-2 (VEGFR-2 [2]; starved of FGF-2 for 12 hours) | explants with migrating cells symmetrically distributed ([3]; FGF-2 (20 ng/ml), co-cultured with mock-transfected cells) | explants with symmetric migration ([3]; application of VEGF and FGF-2 together or FGF-2 alone) | directionality of migration under chemokinesis conditions (neural progenitor cells; VEGF (20 ng/ml) in both inner and outer wells, FGF-2 present) | forward migration index (FMI) versus FGF-2 gradient or chemokinesis (neural progenitor cells; VEGF gradient in the presence of FGF-2, 2-hour recording) | migration speed versus FGF-2 gradient or chemokinesis (neural progenitor cells; VEGF gradient in the presence of FGF-2, mean over 2 hours) | chemotaxis in a VEGF gradient after FGF-2 starvation (neural progenitor cells; cells at 5 days starved of FGF-2 for 12 hours, then VEGF gradient) | chemotaxis of neural progenitor cells in a VEGF gradient (neural progenitor cells; gradient established with 200 ng/ml VEGF in outer well, 20 ng/ml FGF-2 in both wells, day 6 cells, 2-hour recording) | attractive effect on different coating matrices (neural progenitor cells; laminin-, poly-L-lysine- or matrigel-coated coverslips) | explants with no significant cell migration ([3]; application of VEGF in the absence of FGF-2)
FGF-2: fibroblast growth factor-2 (FGF-2), used at 20 ng/ml in culture medium | resume their chemotactic response; also recorded: rescued | no chemotactic effect | fivefold decrease | fivefold decrease | substantial expression | little to no expression | 10/10 | 12/12 |  |  |  |  |  |  | 
VEGF |  |  |  |  |  |  |  |  | no clear preference for displacement | significantly greater | significantly greater | lose their chemotactic response; also recorded: failed to undergo chemotaxis | clear directionality of migration; also recorded: strong positive chemotaxis; also recorded: migrated efficiently toward the source of VEGF | similar | 4/4
